The values that follow come from patent publication US7892784B2, “Lactam ring-opening enzyme and use thereof” (priority 2006, dated 2011).

In brackets after ≈: the same amount, converted by molar mass. Like-named read-outs stand apart in the source and are kept apart here.

The subject of series [1] is S. cerevisiae CKY8. Kind of series: MIC of ST-F and ST-D in S. cerevisiae CKY8 overexpressing sttH or nat gene. The settings on record: SC medium, 2 days at 30° C. The format is cell-based, Saccharomyces cerevisiae. On the procedure:
After sequence confirmation, the amplified fragments were inserted into the same sites in pAD4 to prepare pAD4-nat and pAD4-sttH, in which these genes were expressed under the control of the constitutive promoter of yeast alcohol dehydrogenase. S. cerevisiae CKY8 strain carrying pAD4-nat and pAD4-sttH was grown in SC-Leu medium containing ST (ST-F or ST-D, 0 to 4 mM), and the MICs of ST-F and ST-D were determined.
(§1) Although it was previously reported that the biological activity of chemically synthesized ST-F-acid is negligible in microorganisms and plants, that of ST-D-acid remains unclear. Therefore, we determined the respective MICs of ST-F and ST-D in E. coli and Saccharomyces cerevisiae overexpressing the sttH gene or nat gene (Table 3). […] To confirm this, the selective toxicity of ST-acids and STs against various microorganisms including gram-positive and -negative bacteria, clinically isolated pathogenic bacteria and yeasts was investigated. […] A “c/a” in parentheses in the table represents the ratio of the minimum inhibitory concentrations of ST-F-acid and ST-F, while “d/b” represents the ratio of the minimum inhibitory concentrations of ST-D-acid and ST-D.

Series [2] deals with S. aureus AB. The format is cell-based, Staphylococcus aureus.
Series [3] deals with S. cerevisiae S288C. Nature of the series: MIC test of STs and ST-acids. The format is cell-based, Saccharomyces cerevisiae. The settings on record: YPD medium; 2 days at 30° C.
In series [4] the test system is E. coli W3110. Nature of the series: MIC test of STs and ST-acids. The format is cell-based, Escherichia coli. The settings on record: Heart Infusion Broth; 1 day at 37° C.
In series [5] the test system is E. coli XL1-Blue MRF'. Nature of the series: MIC of ST-F and ST-D in E. coli XL1-Blue MRF' overexpressing sttH or nat gene. It counts as cell-based, Escherichia coli. The conditions noted are these: LB medium, 1 day at 37° C. On the procedure: Restriction enzyme sites (GGATCC or AAGCTT, underlined) and a stop codon (TCA, underlined) were inserted into these primers. An expression vector (pQE30-nat) having incorporated therein an amplified fragment including these primers was constructed using pQE30. The MIC of ST-F and ST-D in an E. coli XL1-Blue MRF′ strain carrying pQE30-nat and pQE30-SHF6R were determined on LB agar flat plates containing ampicillin (100 μg/mL), 0.1 mM IPTG and STs (0 to 4 mM). S. cerevisiae CKY8 strain overexpressing the nat gene and the sttH gene was also prepared as follows. The following two sets of primers having restriction enzyme sites (AAGCTT or CTGCAG, underlined) and stop codons (TCA, underlined) added thereto were designed and used in PCR:
as §1

Series [6] relates to B. subtilis NBRC13169. Kind of series: MIC test of STs and ST-acids. The conditions noted are these: Heart Infusion Broth; 1 day at 37° C. The format is cell-based, Bacillus subtilis.
Series [7] relates to S. pombe L972. Kind of series: MIC test of STs and ST-acids. It counts as cell-based, Schizosaccharomyces pombe. The conditions noted are these: YPD medium; 2 days at 30° C.
The subject of series [8] is S. aureus FIR1169. It counts as cell-based, Staphylococcus aureus.
The target in series [9] is T1, rSttH (Streptomyces noursei, UniProt Q1MW86).
T1 construct: purified rSttH from E. coli M15 (pREP4) carrying pQE30-SHF6R; 6xHis (N); made in house; host or cells: E. coli M15 (pREP4) carrying pQE30-SHF6R
Nature of the series: rSttH reaction rate test (kinetic analysis, HPLC, Lineweaver-Burk). It counts as biochemical, Streptomyces albulus NBRC14147. The conditions noted are these: for Vmax: substrate of rSttH, 30° C., 100 mM NaPB (pH 6.5), U = ST-acid production per minute (μmol). On the procedure:
(§2) In accordance with the manufacturer's (Qiagen) protocols, a reaction mixture (500 μL) was prepared using 100 mM sodium phosphate buffer (pH 6.5), 1 mg/mL ST-F or ST-D, and 100 μg/mL of purified rSttH from E. coli M15 (pREP4) carrying pQE30-SHF6R. The reaction mixture was reacted for 1 hour at 30° C. with or without rSttH, and then extracted with chloroform to remove the proteins. The water layer was analyzed by reverse-phase HPLC using an ion-pair reagent. The analytical conditions were: column, C18 reverse-phase column (COSMOSIL 5C18-AR—II, 250×4.6 mm, Nacalai Tesque, Kyoto, Japan); column temperature, 30° C.; detection, 210 nm; and flow rate, 1 mL/minute. Two different mobile phases were used, one of 0.1% heptafluorobutyric acid+18% acetonitrile (ST-F reaction) and one of 0.1% heptafluorobutyric acid+23% acetonitrile (ST-D reaction). The kinetic assays were performed under conditions similar to those described previously except that the enzyme concentrations (2 μg/mL) and reaction times (5 minutes) were reduced to make them compatible with measurement of steady-state kinetic parameters. All tests were carried out under linear conditions. The reactions were terminated by addition of 15 μl 2N HCl, and then analyzed by HPLC. The kinetic constants were estimated using a Lineweaver-Burk plot. The native molecular weight of the rSttH was estimated by gel filtration using a COSMOSIL 5Diol-300 (7.8 mm×600 mm) column (Nacalai Tesque) which had been equilibrated with 20 mM sodium phosphate buffer (pH 7.0) containing 100 mM sodium sulfate.
(§3) The optimal pH was measured in several buffers (100 mM) with differing pH values: sodium phosphate (NaPB), pH 4.5 to 7; Tris-HCl, pH 7 to 10. Activity peaked at a pH of 6.5 and declined rapidly with decreasing pH (around 4). The effect of temperature on enzymatic activity was also investigated within the range of 25° C. to 75° C. using 100 mM NaPB buffer (pH 6.5). Although enzymatic activity was greatest at 45° C., approximately 90% of maximum activity was also detected at 65° C.

Series [10] has as its system T2, rSttH.
T2 construct: purified rSttH from E. coli M15 (pREP4) carrying pQE30-SHF6R; 6xHis (N); made in house; host or cells: E. coli M15 (pREP4) carrying pQE30-SHF6R
The description is as above. It counts as biochemical, Streptomyces albulus NBRC14147. The conditions noted are these: substrate of rSttH; 30° C., 100 mM NaPB (pH 6.5); average ± s.d. of three tests. On the procedure: as §2, §3

In series [11] the test system is bacteria, fungi and plants. The settings on record: chemically synthesized from ST-F; reports of Inamori and Taniyama; cited from earlier work.
Series [12] deals with gram-positive and -negative bacteria, clinically isolated pathogenic bacteria and yeasts. The format is cell-based.
Series [13] in a line: Enzymatic properties of rSttH (effect of pH and temperature). It counts as biochemical. On the procedure: as §3
Setting [14] is: Heart Infusion Broth, 1 day at 37° C.

Broadly, the Km is the concentration of substrate that gives half-maximal velocity.

Turning to `NCCC[C@H](N)CC(=O)NCCC[C@H](N)CC(=O)NCCC[C@H](N)CC(=O)N[C@@H]1[C@H](O)[C@@H](OC(N)=O)[C@@H](CO)O[C@H]1NC1=N[C@@H]2C(=O)NC[C@@H](O)[C@H]2N1` [ST-D, streptothricin D], the “Minimum inhibitory concentration (MIC)” value in series [1] (CKY8 + pAD4-nat) was >4000 µM; in series [1] (CKY8 + pAD4-sttH) it was >4000 µM; in series [1] (CKY8 + pAD4) it was <30 µM; in series [2] (setting [14]) it was 0.004 mM (≈ 3.04 µg/mL); in series [3], 4 µM (≈ 3.04 µg/mL); in series [4] it was 8 µM (≈ 6.07 µg/mL). Besides, the “Minimum inhibitory concentration (MIC)” value was <30 µM in series [5] (XL1-Blue MRF' + pQE30-SHF6R); 2000 µM in [5] (XL1-Blue MRF' + pQE30-nat); <30 µM in series [5] (XL1-Blue MRF' + pQE30); 4 µM (≈ 3.04 µg/mL) in series [6]; 8 µM (≈ 6.07 µg/mL) in [7]; 0.004 mM (≈ 3.04 µg/mL) in series [8] (setting [14]). For the same molecule, the Vmax in series [9] is on record as 68.95 ± 13.9 U/mg. The Km in series [10] was 5740 ± 990 µM.
For `NCCC[C@H](N)CC(=O)N[C@@H]1[C@H](O)[C@@H](OC(N)=O)[C@@H](CO)O[C@H]1NC1=N[C@@H]2C(=O)NC[C@@H](O)[C@H]2N1` [ST-F, streptothricin F], the “Minimum inhibitory concentration (MIC)” value is >4000 µM in series [1] (CKY8 + pAD4-nat); >4000 µM in series [1] (CKY8 + pAD4-sttH); 500 µM in series [1] (CKY8 + pAD4); 0.016 mM (≈ 8.04 µg/mL) in [2] (setting [14]); 62 µM (≈ 31.2 µg/mL) in [3]; 30 µM (≈ 15.1 µg/mL) in series [4]. The “Minimum inhibitory concentration (MIC)” value in [5] (XL1-Blue MRF' + pQE30-SHF6R) was 250 µM; in series [5] (XL1-Blue MRF' + pQE30-nat) it was 4000 µM; in [5] (XL1-Blue MRF' + pQE30) it was <30 µM; in series [6], 16 µM (≈ 8.04 µg/mL); in [7] it was 125 µM (≈ 62.8 µg/mL); in [8] (setting [14]), 0.016 mM (≈ 8.04 µg/mL). Also, the “Vmax/Km of the reaction with ST-F relative to the reaction with ST-D” value in series [9] (rSttH) stood at 4 fold. For the same molecule, the Vmax in [9] is 42.26 ± 2.8 U/mg. In series [10], the Michaelis-Menten constant (Km) was found to be 960 ± 190 µM.
As to `NCCCC(N)CC(=O)NC1C(/N=C2/NC(C(=O)O)C(C(O)CN)N2)OC(CO)C(OC(N)=O)C1O` (centres unmarked) [ST-F-acid], the antibiotic activity result in series [11] is on record as “did not exhibit antibiotic activity”. For the same molecule, the “Minimum inhibitory concentration (MIC)” value in [2] is 2 (126) mM; in series [3] it was > 4000 µM; in series [4], 4000 µM (≈ 2080 µg/mL); in [6], 4000 µM (≈ 2080 µg/mL); in series [7], > 4000 µM; in [8], 2 (126) mM. Besides, the “ratio of MICs of ST-acid and parent ST (c/a or d/b)” value in series [3] was > 64; in series [4], 133; in series [6], 250; in [7], > 32. The antimicrobial activity result in [12] is reported as “lost almost all of its antimicrobial activity”.
As for “lactam ring-opened streptothricin D derivative [ST-D-acid]”, the “Minimum inhibitory concentration (MIC)” value is 0.06 (15) mM in series [2]; 1000 µM in series [3]; 250 µM in [4]; 125 µM in [6]; 1000 µM in series [7]; 0.06 (15) mM in series [8]. The antimicrobial activity result in [2] and in [8] was “particularly strong antimicrobial activity” each time. Also, the “ratio of MICs of ST-acid and parent ST (c/a or d/b)” value in series [3] stood at 250; in series [4] it was 31.3; in series [6] it was 31.3; in series [7] it was 125.

B1: rSttH: recombinant lactam ring-opening enzyme from Streptomyces albulus NBRC14147, N-terminal 6× His Tag fused protein (protein)
chain: VTAMPPETAAPPETAAPARPLRPVQALLVVDVQTAFVSGAEAVPEAARVLDRTRGLLARARTAGALVVHLQNDGAPGAVDAPHTPGWELHLPVEPGPREHVVRKTEDDGFADTGLGALLDAAGVTELAVCGVLSEMCVAATARTALELGHRVVLPHDAHATYDIPAAPDISDTVPAAMSSRAAEWALGDEVEIVPRAAAVPFVAPPLAPAPEAPAAAAAPAAGTGLSPAGPPPAPAR
modifications: N-terminal 6xHis tag; streptomyces albulus
notes: recombinant lactam ring-opening enzyme from Streptomyces albulus NBRC14147, N-terminal 6× His Tag fused protein
Take B1: the “optimal pH (activity peak)” value in series [13] (100 mM buffers: NaPB pH 4.5 to 7, Tris-HCl pH 7 to 10) is recorded as 6.5. In addition, in series [13] (at 65° C., 100 mM NaPB (pH 6.5)), the “enzymatic activity relative to maximum activity” value is given as “approximately 90%”. In addition, the “temperature of greatest enzymatic activity” value in series [13] (range 25° C. to 75° C., 100 mM NaPB (pH 6.5)) was determined as 45 °C.
